According to ChEMBL document CHEMBL1151292, “Antineoplastic activity and cytotoxicity of flavones, isoflavones, and flavanones” (1979):
Converted amounts (≈) assume the structure as drawn. The source made the active and inactive calls. How the calls were made is not given here.

Assays:
L1210 = assay: In vivo antitumor activity against mouse L1210 cells; format: functional, organism-based
CA-755 = assay: In vivo antitumor activity against mouse CA-755 cells; format: functional, organism-based
CCRF S-180 = assay: In vivo antitumor activity against mouse S180 cells; format: functional, organism-based
KB = assay: Cytotoxicity against human KB cells; format: functional; conditions: read-out: ED50 (the source's name)

SMILES | Activity (L1210) | Activity (CA-755) | Activity (CCRF S-180) | EC50 (KB) [µg/mL]
O=C1CC(c2ccccc2Cl)Oc2ccc(Cl)cc21 (stereo not drawn) | inactive | inactive | inactive | –
O=C1CC(c2cccc(Cl)c2)Oc2ccccc21 (stereo not drawn) | inactive | Active | inactive | –
O/N=c1/cc(-c2ccccc2)oc2ccccc12 | inactive | – | inactive | –
O=c1cc(-c2ccccc2)oc2c(F)cc(F)cc12 | inactive | – | inactive | 15 (≈ 58.1 µM)
COc1ccc2c(c1)C(=O)CC(c1ccccc1OC)O2 (stereo not drawn) | inactive | inactive | inactive | 24 (≈ 84.4 µM)
COc1ccc(C2Oc3ccccc3C(=O)C2N)cc1.Cl (stereo not drawn) | – | – | inactive | > 100
COc1ccc(C2CC(=O)c3c(OC(C)=O)cc(OC(C)=O)cc3O2)cc1OC(C)=O (stereo not drawn) | inactive | inactive | inactive | –
O=C1CC(c2ccc(Cl)cc2)Oc2ccccc21 (stereo not drawn) | inactive | inactive | inactive | –
COc1cc(O)c2c(=O)c(OC)c(-c3ccc(OC)c(OC)c3)oc2c1 [RETUSIN] | inactive | inactive | inactive | 41 (≈ 114 µM)
O=C1C[C@@H](c2ccc(O)cc2)Oc2cc(O)cc(O)c21 | inactive | – | inactive | –
O=c1c(O)c(-c2ccc(Cl)cc2)oc2cc(O)ccc12 | inactive | – | inactive | –
O=C1CC(c2ccc(Cl)cc2Cl)Oc2ccc(Cl)cc21 (stereo not drawn) | inactive | inactive | inactive | –
O=C1CC(c2ccccc2Cl)Oc2ccccc21 (stereo not drawn) | inactive | inactive | inactive | –
O=c1cc(-c2ccccc2)oc2ccccc12 | inactive | inactive | inactive | –
CCOc1ccc(-c2cc(=O)c3c(OC)c(OC)c(OC)c(OC)c3o2)cc1 | inactive | – | inactive | 30 (≈ 77.6 µM)
COc1ccc(C2CC(=O)c3cc(OC)ccc3O2)cc1 (stereo not drawn) | inactive | inactive | inactive | –
COc1ccc(C2CC(=O)c3c(cc(OC)c(O)c3OC)O2)cc1 (stereo not drawn) | inactive | inactive | inactive | –
CS(=O)(=O)Nc1c(-c2ccccc2)oc2ccccc2c1=O | – | – | inactive | 10 (≈ 31.7 µM)
O=C1CC(c2ccccc2)Oc2ccc(Cl)cc21 (stereo not drawn) | inactive | inactive | inactive | 1 (≈ 3.87 µM)
O=C1c2ccccc2OC(Cl)(c2ccccc2)C1Cl (stereo not drawn) | inactive | inactive | inactive | –
COc1cc(C2CC(=O)c3ccccc3O2)ccc1O (stereo not drawn) | inactive | – | inactive | –
O=C1c2cc(Cl)ccc2OC(Cl)(c2ccc(Cl)cc2)C1Cl (stereo not drawn) | – | – | inactive | –
Cc1cc(C)c(-c2oc3ccc(Cl)cc3c(=O)c2Cl)c(C)c1 | – | – | Active | > 100
COc1ccc([C@@H]2CC(=O)c3c(O)cc(O[C@@H]4O[C@H](CO[C@@H]5O[C@@H](C)[C@H](O)[C@@H](O)[C@H]5O)[C@@H](O)[C@H](O)[C@H]4O)cc3O2)cc1O | inactive | inactive | inactive | –

SMILES | Activity (L1210) | Activity (CA-755) | Activity (CCRF S-180) | EC50 (KB) [µg/mL]
O=C1C[C@@H](c2ccccc2)Oc2cc(O)cc(O)c21 | inactive | inactive | inactive | –
Cc1c(-c2ccccc2)oc2c(C(=O)OCCN3CCCCC3)cccc2c1=O.Cl [FLAVOXATE HYDROCHLORIDE] | inactive | – | – | > 100
COc1ccc(C2CC(=O)c3ccccc3O2)cc1 (stereo not drawn) | inactive | inactive | inactive | –
COc1cc(OC)c(-c2cc(=O)c3ccccc3o2)cc1Br | – | inactive | inactive | –
COc1ccc2c(=O)c(C)c(-c3ccccc3)oc2c1CN(C)C.Cl [DIMEFLINE HYDROCHLORIDE] | inactive | – | – | 22
O=c1cc(-c2cccc(O)c2)oc2ccccc12 | inactive | – | – | 8.5 (≈ 35.7 µM)
COc1ccc(C2CC(=O)c3ccccc3O2)cc1OC (stereo not drawn) | inactive | inactive | inactive | –
COc1ccc([C@@H]2CC(=O)c3c(O)cc(O)cc3O2)cc1O | inactive | inactive | inactive | –
COc1ccc(-c2oc3cc(O)cc(O)c3c(=O)c2OC)cc1 | inactive | Active | inactive | –
O=C1CC(c2ccc(Cl)cc2)Oc2ccc(Cl)cc21 (stereo not drawn) | inactive | inactive | inactive | –
COc1ccc(-c2cc(=O)c3c(OC)c(O)c(OC)cc3o2)cc1 | inactive | inactive | inactive | –
O=c1cc(-c2ccc(O)cc2)oc2ccccc12 | inactive | inactive | inactive | –
COc1ccc2c(c1)C(=O)CC(c1ccccc1)O2 (stereo not drawn) | inactive | inactive | Active | –
COc1ccc(-c2oc3cc(OC(C)=O)cc(OC(C)=O)c3c(=O)c2OC)cc1 | inactive | Active | inactive | –
O=c1cc(-c2ccc(O)cc2)oc2cc(O[C@@H]3O[C@H](CO)[C@@H](O)[C@H](O)[C@H]3O)cc(O)c12 [APIGETRIN] | – | – | inactive | > 100
COc1cc2c(c(OC)c1OC)C(=O)CC(c1ccc(O)cc1)O2 (stereo not drawn) | inactive | inactive | inactive | –
COc1cc(O)c2c(=O)c(O)c(-c3ccc(O)c(O)c3)oc2c1 | inactive | inactive | inactive | –
C[C@@H]1O[C@@H](OC[C@H]2O[C@@H](Oc3cc(O)c4c(c3)OC(c3ccc(O)cc3)CC4=O)[C@H](O)[C@@H](O)[C@@H]2O)[C@H](O)[C@H](O)[C@H]1O (stereo partly drawn) | – | – | inactive | –
O=C1c2ccccc2OC(c2ccccc2)C1Cl (stereo not drawn) | – | inactive | inactive | –
COc1cc2c(c(OC)c1O)C(=O)CC(c1ccc(O)cc1)O2 (stereo not drawn) | inactive | inactive | inactive | –
CS(=O)(=O)NC1C(=O)c2ccccc2OC1c1ccccc1 (stereo not drawn) | inactive | – | inactive | 10 (≈ 31.5 µM)
COc1cc2c(c(O[C@@H]3O[C@H](CO)[C@@H](O)[C@H](O)[C@H]3O)c1)C(=O)CC(c1ccc(O)cc1)O2 (stereo partly drawn) | – | – | inactive | > 100
COc1ccc(C2CC(=O)c3c(cc(OC)c(OC)c3OC)O2)cc1 (stereo not drawn) | inactive | inactive | inactive | –
Cc1c(O)cc2c(c1O)C(=O)CC(c1ccc(O)cc1)O2 (stereo not drawn) | inactive | – | – | 57 (≈ 199 µM)
